Measurements as given in article PMC10616419 (The Journal of Biological Chemistry, 2023).
Where “and” joins values, the source holds several entries; their conditions need not be identical. Equal entries are not always repeated. Where two headings read alike, the source gives them in different places.

Columns and labels:
[1] = target: T1, YYYA concatemer rat TRPV1 (single Y511A mutant binding site) (Rattus norvegicus, UniProt O35433, Y511A); type: cell-based
T1 construct: expressed in transfected cells; host or cells: TSA201 (HEK293T) cells, transient transfection; excised inside-out patches

[2] = target: T2, YYAA concatemer rat TRPV1 (two Y511A mutant subunits) (Rattus norvegicus, UniProt O35433, Y511A); type: cell-based
T2 construct: expressed in transfected cells; host or cells: TSA201 (HEK293T) cells, transient transfection; excised inside-out patches

[3] = target: T3, Y511A mutant subunit of rat TRPV1 (YYYA and YYAA concatemers) (Rattus norvegicus, UniProt O35433, Y511A); type: cell-based
T3 construct: expressed in transfected cells; host or cells: TSA201 (HEK293T) cells, transient transfection

wildtype mouse TRPV1 = target: T4, wildtype mouse TRPV1 (Mus musculus, UniProt Q704Y3); experiment: cell-based; type: cell-based
T4 construct: expressed in transfected cells; host or cells: TSA201 (HEK293T) cells, transient transfection

Y512A mutant mouse TRPV1 [4] = target: T5, Y512A mutant mouse TRPV1 (Mus musculus, UniProt Q704Y3, Y512A); experiment: cell-based; type: cell-based
T5 construct: expressed in transfected cells; host or cells: TSA201 (HEK293T) cells, transient transfection

TRPV1 [5] = type: cell-based
TRPV1 [6] = conditions: cited from earlier work
[7] = target: T1, YYYA concatemer rat TRPV1 (single Y511A mutant binding site); conditions: cited from earlier work
TRPV1 [8] = target: TRPV1 (Rattus norvegicus, UniProt O35433); conditions: cited from earlier work
TRPV1 [9] = target: TRPV1 (Rattus norvegicus, UniProt O35433, Y511A); conditions: cited from earlier work
[10] = test system: Y511A mutant subunit of rat TRPV1 (YYYA and YYAA concatemers); type: cell-based
[11] = target: T6, wildtype (Y) subunit of rat TRPV1 concatemers (Rattus norvegicus, UniProt O35433); type: cell-based
T6 construct: expressed in transfected cells; host or cells: TSA201 (HEK293T) cells, transient transfection

[12] = target: T7, Y511A (A) mutant subunit of rat TRPV1 concatemers (Rattus norvegicus, UniProt O35433, Y511A); type: cell-based
T7 construct: expressed in transfected cells; host or cells: TSA201 (HEK293T) cells, transient transfection

Y512A mutant mouse TRPV1 [13] = target: T5, Y512A mutant mouse TRPV1; conditions: cited from earlier work

T5 sequence (Q704Y3 whole entry Y512A): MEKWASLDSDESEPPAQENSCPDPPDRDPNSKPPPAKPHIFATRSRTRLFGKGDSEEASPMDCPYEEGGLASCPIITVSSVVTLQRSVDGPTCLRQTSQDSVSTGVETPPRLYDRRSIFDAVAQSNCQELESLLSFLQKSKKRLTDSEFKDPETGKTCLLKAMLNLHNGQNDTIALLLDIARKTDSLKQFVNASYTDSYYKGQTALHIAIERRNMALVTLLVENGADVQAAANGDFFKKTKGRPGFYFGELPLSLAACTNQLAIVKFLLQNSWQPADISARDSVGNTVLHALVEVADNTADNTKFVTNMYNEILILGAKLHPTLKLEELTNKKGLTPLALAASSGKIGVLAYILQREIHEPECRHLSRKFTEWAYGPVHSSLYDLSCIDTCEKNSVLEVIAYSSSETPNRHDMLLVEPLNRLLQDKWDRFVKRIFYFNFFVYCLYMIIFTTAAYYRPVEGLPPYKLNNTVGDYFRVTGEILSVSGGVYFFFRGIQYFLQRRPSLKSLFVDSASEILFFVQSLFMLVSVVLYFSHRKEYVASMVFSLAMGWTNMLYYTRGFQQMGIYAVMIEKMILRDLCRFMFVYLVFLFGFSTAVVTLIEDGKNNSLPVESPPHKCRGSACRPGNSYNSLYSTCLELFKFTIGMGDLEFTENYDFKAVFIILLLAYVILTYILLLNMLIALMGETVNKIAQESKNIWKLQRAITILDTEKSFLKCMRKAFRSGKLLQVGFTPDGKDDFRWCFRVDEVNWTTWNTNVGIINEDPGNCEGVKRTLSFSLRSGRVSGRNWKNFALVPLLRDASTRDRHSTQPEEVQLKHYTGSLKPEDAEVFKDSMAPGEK
T4 sequence (Q704Y3 whole entry): as the sequence (Q704Y3 whole entry Y512A) above, with A512Y counted along it
T1 sequence (O35433 whole entry, stated change not applied): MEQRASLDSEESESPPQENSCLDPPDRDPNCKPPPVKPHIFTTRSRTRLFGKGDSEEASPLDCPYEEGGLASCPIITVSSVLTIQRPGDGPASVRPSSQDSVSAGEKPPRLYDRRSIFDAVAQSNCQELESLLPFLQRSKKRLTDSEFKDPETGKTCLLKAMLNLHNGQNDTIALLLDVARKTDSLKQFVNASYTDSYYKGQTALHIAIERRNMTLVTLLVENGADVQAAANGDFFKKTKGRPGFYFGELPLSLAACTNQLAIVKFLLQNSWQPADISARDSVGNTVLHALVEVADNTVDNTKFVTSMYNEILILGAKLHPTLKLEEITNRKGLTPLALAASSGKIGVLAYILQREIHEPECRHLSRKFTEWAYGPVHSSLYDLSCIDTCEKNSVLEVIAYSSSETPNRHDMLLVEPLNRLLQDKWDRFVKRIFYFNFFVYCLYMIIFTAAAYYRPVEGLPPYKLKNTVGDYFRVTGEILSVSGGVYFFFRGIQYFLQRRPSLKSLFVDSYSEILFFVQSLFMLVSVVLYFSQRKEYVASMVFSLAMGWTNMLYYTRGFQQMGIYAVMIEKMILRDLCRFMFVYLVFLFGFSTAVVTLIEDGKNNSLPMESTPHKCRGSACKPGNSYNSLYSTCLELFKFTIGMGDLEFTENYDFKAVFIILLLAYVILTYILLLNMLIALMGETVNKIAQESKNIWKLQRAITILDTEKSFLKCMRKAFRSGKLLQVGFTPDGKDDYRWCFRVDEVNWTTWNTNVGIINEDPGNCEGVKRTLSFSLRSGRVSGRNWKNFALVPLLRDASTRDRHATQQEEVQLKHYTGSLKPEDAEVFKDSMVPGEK
T1 sequence (O35433 whole entry, stated change not applied): as above
T1 sequence (O35433 whole entry, stated change not applied): as above
T1 sequence (O35433 whole entry Y511A): as the sequence (O35433 whole entry, stated change not applied) above, with Y511A counted along it
T2 sequence (O35433 whole entry, stated change not applied): as the sequence (O35433 whole entry, stated change not applied) above
T2 sequence (O35433 whole entry, stated change not applied): as above
T2 sequence (O35433 whole entry Y511A): as the sequence (O35433 whole entry, stated change not applied) above, with Y511A counted along it
T2 sequence (O35433 whole entry Y511A): as the sequence (O35433 whole entry, stated change not applied) above, with Y511A counted along it
T3 sequence (O35433 whole entry Y511A): as the sequence (O35433 whole entry, stated change not applied) above, with Y511A counted along it
T3 sequence (O35433 whole entry partner): as the sequence (O35433 whole entry, stated change not applied) above
T6 sequence (O35433 whole entry): as the sequence (O35433 whole entry, stated change not applied) above
Chain of TRPV1 (Rattus norvegicus, UniProt O35433) (O35433 whole entry): as the sequence (O35433 whole entry, stated change not applied) above
T7 sequence (O35433 whole entry Y511A): as the sequence (O35433 whole entry, stated change not applied) above, with Y511A counted along it
Chain of TRPV1 (Rattus norvegicus, UniProt O35433, Y511A) (O35433 whole entry Y511A): as the sequence (O35433 whole entry, stated change not applied) above, with Y511A counted along it

For 6′-iodo-RTX [6′-iRTX], the “channel activation with three molecules bound” value [1] was “barely activated”, the “L2, equilibrium constant before capsaicin” value [2] was 0.01 and the “L2, equilibrium constant before capsaicin application” value [2] was 0.008. The L [3] was 0.01, the “L with three prebound 6′-iRTX” value [3] was 0.02 and the “L with two prebound 6′-iRTX” value [3] was 0.02. For the same molecule, the binding reversibility (wildtype mouse TRPV1) was “binds irreversibly”, the “channel activity produced on perfusion” value (wildtype mouse TRPV1) was “weak channel activities” and the binding reversibility (Y512A mutant mouse TRPV1 [4]) was “could be washed off”. The agonist type (TRPV1 [5]) was “weak agonist” and the agonist type (TRPV1 [6]) was “weak partial agonist”.
For `NCCOB(c1ccccc1)c1ccccc1` [2-APB, 2-aminoethoxydiphenyl borate], the “activation after perfusing 6′-iRTX” value (wildtype mouse TRPV1) was “could still activate these channels”.
With `C=C(C)[C@]12C[C@@H](C)[C@@]34O[C@](Cc5ccccc5)(O[C@@H]1[C@@H]3C=C(COC(=O)Cc1ccc(O)c(OC)c1)C[C@]1(O)C(=O)C(C)=C[C@@H]41)O2` [RTX, resiniferatoxin] the “L2, equilibrium constant before capsaicin” value [2] was 0.97, the “L2, equilibrium constant before capsaicin application” value [2] was 0.96 and the “initial Po level with wildtype binding sites preloaded” value [2] was “approximately 50%”. The L [3] was 0.96, the “L with two prebound RTX” value [3] was 0.94 and the agonist type (TRPV1 [5]) was “full agonist”. The “Po with three RTX molecules bound” value [7] was “approximately 99%”, the binding reversibility (TRPV1 [8]) was “binds irreversibly” and the binding reversibility (TRPV1 [9]) was “can be washed off”.
For `COc1cc(CNC(=O)CCCC/C=C/C(C)C)ccc1O` [capsaicin], the Hill slope [1] was 0.96, the Hill slope [2] was 0.88 and the “Po reached on application of capsaicin” value [2] was about 100%. For the same molecule, the “a factor (cooperativity between the two capsaicin binding steps; 0.25 = independent)” value [2] was 0.27, the cooperative factor f [2] was 8.9 and 11.8 and the cooperative factor f [3] was 12.1 and 8.9. The “capsaicin association constant K” value [10] was 49000 M⁻¹, the cooperative factor f [10] was 8.0 and the KY [11] was 2.4e+06 M⁻¹. For the same molecule, the fA [12] was 12.9, the EC50 (wildtype mouse TRPV1) was 0.11 µM and the Kd (wildtype mouse TRPV1) was 0.244 µM. The “activation after perfusing 6′-iRTX” value (wildtype mouse TRPV1) was “lost its activation effect”, the “slope factor (Hill function)” value (wildtype mouse TRPV1) was 1.3 and the EC50 (Y512A mutant mouse TRPV1 [4]) was 22 µM. The Kd (Y512A mutant mouse TRPV1 [4]) was 52.6 µM, the “slope factor (Hill function)” value (Y512A mutant mouse TRPV1 [4]) was 2.3 and the EC50 (Y512A mutant mouse TRPV1 [13]) was 13 µM.
